Reference: patent publication US20240358678A1, “METHODS AND COMPOSITIONS FOR ENHANCING CHEMOTHERAPEUTIC DRUG UPTAKE INTO BRAIN TUMORS” (Brown University, priority 2023, published 2024)

Key:
HCMEC/D3 cells [1] = experiment: Western blot of HCMEC/D3 cells; type: cell-based, human
Method: Western blot: HCMEC/D3 and GBM cell lysates were collected in RIPA Buffer (Thermo Fisher Scientific) supplemented with 1× protease/phosphatase inhibitor cocktail (Cell Signaling). Lysate collection from murine tumor tissue samples (˜30 mg) was performed under homogenization using 23G and 26G needles. Total protein concentration was measured using Pierce 660 nm Protein Assay Reagent (Thermo Fisher Scientific) at 660 nm absorbance in Molecular Devices SpectraMax M2 plate reader. Samples were incubated in 1× Laemmli sample buffer (BioRad) at 95 degrees Celsius for 5 minutes before loading onto 10% Mini-PROTEAN TGX precast protein gel (BioRad). PageRuler Plus Pre-stained Protein Ladder (Thermo Fisher Scientific) was used as ladder. Appropriate secondary antibodies, Goat anti-mouse-HRP (Sigma) or Goat anti-rabbit-HRP (Sigma) in 5% milk in 1×TBST with 1:5000 dilution.

HCMEC/D3 cells [2] = experiment: Trans-endothelial electrical resistance (TEER) of HCMEC/D3 monolayers; type: cell-based, human
Method: (§1) Trans-endothelial electrical resistance: HCMEC/D3 or HBMEC cells were plated in 8W10E+ PET 8-well arrays (Applied Biophysics) at a density of 100,000 cells/well in 500 μl. These arrays were placed in a pre-stabilized ECIS Z-Theta instrument (Applied Biophysics). Using the ECIS Z-Theta software (Applied Biophysics), measurements were set to 4000 and 64000 Hz every 30 minutes. […] Cells would then be treated with BIA and left to grow up to 5 days, with frequent drug-containing media re-addition for maintenance of the culture. Resistance (W) and capacitance (nF) were recorded and plotted.

HBMEC cells = experiment: Trans-endothelial electrical resistance (TEER) of HBMEC monolayers; type: cell-based, human
Method: as §1

BBB spheroids = BBB spheroids staining and dextran permeability assay; type: cell-based, human; conditions: BIA 72 hours
Method: BBB spheroids and dextran permeability assay: BBB spheroids were grown and cultured with a FITC-conjugated (70 kDa) fluorescent dextran (Millipore Sigma) as previously reported.^51,86,87 BBB spheroids were grown for 48 hours and then treated with BIA at increasing doses for 72 hours. Then, spheroids were collected and stained as indicated above for CDH5 and F-actin (Phalloidin). In the case of fluorescent dextran incubation, BBB spheroids were collected in 1.5 mL microtubes (Eppendorf) and incubated for 3 hours at 37 degrees Celsius. Pictures were taken by confocal microscopy. For dextran permeability measurement, 21 images using Z-stack layers of 5 μm intervals for achieving a total depth of 100 μm within the sphere. Fluorescent-dextran intensity from maximal intensity projection was quantified using Image J (National Institute of Health).

HCMEC/D3 cells [3] = experiment: Flow cytometry of late apoptosis by Sytox Blue staining; type: cell-based, human; conditions: any of the used BIA doses, 72 hours, vs cisplatin control
Method: For apoptosis assessment, […]3 cells were treated as indicated above for 72 hours with BIA at indicated doses. Cells were collected from the 6-well plates and washed three times with PBS. Then, incubated with SYTOXTM Blue nucleic acid stain (5 mM) with a dilution of 1:1000 for 15 minutes. Cells were submitted and analyzed in the CytoFLEX system and its software as indicated above.

HCMEC/D3 cells [4] = experiment: Visual assessment (brightfield) of HCMEC/D3 cells; type: cell-based, human; conditions: BIA 72 hours; elongated phenotype with long filipodia
HCMEC/D3 cells [5] = experiment: Human phospho-kinase array of HCMEC/D3 cells; type: cell-based
Method: Phospho-kinase array: HCMEC/D3 cells were plated at a density of 1 million cells and treated with either 1 μM BIA or vehicle DMSO for 24 hr. Cell lysates were collected with manufacturer provided Lysis Buffer 6 supplemented with 10 μg/mL Aprotinin (Tocris), 10 μg/mL Leupeptin hemisulfate (Tocris) and 10 μg/mL Pepstatin A (Tocris) for protein preservation. 50 μg of lysate from each sample were loaded into each membrane. All experiment procedures were performed using the Proteome Profiler Human Phospho-Kinase Array Kit (R&D Systems) following manufacturer's protocol.

G30 tumor-bearing mice = experiment: Sodium fluorescein (NaF) BTB permeability study; type: in vivo
Method: In vivo studies: For intra-cranial tumor implantation, GBM neuro-spheres were grown to 70% confluency before dissociated into single cell on the day of surgery. 50,000 cells were resuspended in 3 μl of sterile PBS and injected intracranially into the striatum (2 mm right hemisphere, 1 mm frontal, 3 mm depth from bregma) of mice under anesthesia and stereo-tactically fixed. Tumors were left to grow for approximately 2-3 weeks, depending the cell line. Animals were randomized to treatment groups. BIA injections consisted of 20 mg/kg (i.p.), except if indicated otherwise. PPRX-1701 was administered at 20 mg/kg (i.v.) via lateral tail-vein. Cisplatin injections were performed at 5 mg/kg (maximum tolerated dose, i.p.). […]
Sodium fluorescein (NaF) BTB permeability studies: NaF was administered to G30 tumor-bearing mice intravenously (i.v.) via lateral tail vein at 20 mg/kg. Then, 30 minutes after administration when peak fluorescence is reached in the brain, mice were euthanized for immediate brain tissue harvest. […] Quantification of pixel intensities from acquired images was performed in ImageJ. Tissue samples were then homogenized in 1 mL of 60% trichloroacetic acid in PBS and measured at 488 nm in a Molecular Devices SpectraMax M2 plate reader.

HCMEC/D3 cells [6] = experiment: Platinum levels in brain endothelial cells treated with BIA and cisplatin; type: cell-based, human; conditions: 2 μM BIA and cisplatin simultaneously
[7] = tested on: patient-derived GBM neuro-spheres; experiment: GBM neuro-sphere cell viability assay (Cell-Titer Glo 3D), BIA and cisplatin; type: cell-based, human; conditions: BIA 1 μM, 5 days
Method: Cell viability assay: Cells were plated at a density of 1500 cells/well in black-well clear bottom 96-well plates and left growing in culture conditions overnight. Next day, cells were treated with titrating doses of the indicated compounds. For BIA only cytotoxicity studies, cells were incubated with BIA for 96 hours. For BIA and cisplatin combinatorial studies, cells were incubated with BIA and cisplatin, and corresponding controls, for 5 days. Next, we used the Cell-Titer Glo 3D (Promega) following provider's guidelines and quantified for luminescence signal using a Molecular Devices SpectraMax M2 plate reader. Conditions were repeated in triplicates.

[8] = Hydrophobicity / dissolution in physiological solutions; type: physicochemical; conditions: difficult to dissolve in physiological solutions
murine GBM models = conditions: cited from earlier work

## CC(=O)ON=C1C(=C2C(=O)Nc3cc(Br)ccc32)Nc2ccccc21 [BIA, 6-bromoindirubin acetoxime]
HCMEC/D3 cells [1]; 1 μM BIA, remained for 2 days
  time of maximum reduction of CDH5 protein levels post-BIA addition: 12 h
HCMEC/D3 cells [1]; BIA 1 μM, 48 hours
  protein levels of CAV1 or MFSD2A: did not show any changes of protein levels
HCMEC/D3 cells [2]
  barrier establishment (TEER), BIA added 24 hours after plating: prevented barrier establishment
HCMEC/D3 cells [2]; BIA added at monolayer confluence (~110 hrs)
  barrier formation (TEER), BIA added to confluent monolayers: marked decreased of barrier formation
HBMEC cells
  barrier establishment (TEER), BIA added 24 hours after plating: prevented barrier establishment
BBB spheroids
  CDH5 expression in BBB spheroids (IF): decreased the expression of CDH5 in a dose-dependent manner
  F-actin in BBB spheroids (Phalloidin): reduced considerably
BBB spheroids; dextran 3 hours
  FITC-dextran (70 kDa) permeability of BBB spheroids: dose-dependent increase in permeability
HCMEC/D3 cells [3]
  late apoptosis/necrosis: did not show late apoptosis/necrosis
HCMEC/D3 cells [4]
  signs of apoptosis or necrosis by visual assessment: did not show signs of apoptosis or necrosis
HCMEC/D3 cells [5]
  activity of endothelial nitric oxide synthase (eNOS) and the p38a/CREB axis: decreased activity
HCMEC/D3 cells [5]; 1 μM BIA, 24 hours
  phosphorylation of MAPK family (p38a, JNK1, MSK1/2, ERK1/2), SRC family (SRC, YES, FGR) and transcription factors (CREB, STAT1, STAT2, STAT5a/b, c-JUN): decrease of activating phosphorylation
  phosphorylation of STAT3 and p70 S6 kinase: phosphorylation of STAT3 at S727 and Y705
G30 tumor-bearing mice; after BIA administration
  NaF fluorescent signal in healthy brain: not in healthy brain
G30 tumor-bearing mice; after BIA administration vs untreated controls
  NaF fluorescent signal in the tumor: significant accumulation in the tumor
HCMEC/D3 cells [6]
  cellular drug (platinum) accumulation due to BIA addition: did not observe any advantage in drug accumulation
[7]
  cell viability, BIA single-treatment: reduced the cell viability of cells mildly
[8]
  hydrophobicity: highly hydrophobic
Murine GBM models; GBM in vitro and in vivo
  tumor migration and growth (previously reported): halted tumor migration and growth in vitro and in vivo
Murine GBM models; mouse, in vivo
  angiogenesis of intra-cranial murine GBM models (previously reported): reduced angiogenesis
